Measured values from patent US11028095B2, “Spiro-lactam and bis-spiro-lactam NMDA receptor modulators and uses thereof” (Aptinyx Inc., priority 2016, dated 2021).
pEC50: −log10 of the molar value. Read-outs that look alike come from different tables or passages of the source.

Tests used:
[1] = system: positive (hedonic) 50-kHz ultrasonic vocalizations (USVs); experiment: Positive Emotional Learning (PEL) test; assay type: in vivo; settings: rat, PO, one hour after administration
Description: Experiments were conducted as described in Burgdorf et al., “The effect of selective breeding for differential rates of 50-kHz ultrasonic vocalizations on emotional behavior in rats,” Devel. […] Rat 50-kHz ultrasonic vocalization (hedonic USVs) is a validated model for the study of positive affective state and is best elicited by rough-and-tumble play.
The PEL assay measures the acquisition of positive (hedonic) 50-kHz ultrasonic vocalizations (USVs) to a social stimulus, heterospecific rough and tumble play stimulation. Heterospecific rough-and-tumble play stimulation was administered by the experimenter's right hand. One hour after administration of test compound or vehicle negative control (0.5% sodium carboxymethyl cellulose in 0.9% sterile saline vehicle), animals received 3 min of heterospecific rough-and-tumble play that consisted of alternating 15 sec blocks of heterospecific play and 15 sec of no-stimulation. […] Frequency modulated 50-kHz USVs that occurred during each of the no-stimulation periods were quantified to measure PEL. Animals were not habituated to play stimulation before testing. Positive emotional learning was measured during the conditioned stimulus (CS) trials preceding the tickle unconditioned stimulus (UCS) trials. Animals received 15 second trials consisting of 6 CS and 6 UCS trials each (3 min total).

[2] = Microsomal stability (Human); assay type: in vitro ADME; settings: human microsomes
Description: (§1) Microsomal stability of disclosed compounds was investigated. The following table indicates the percent of compound remaining after 60 minutes.

[3] = Microsomal stability (Rat); assay type: in vitro ADME; settings: rat microsomes
Description: as §1

[4] = Plasma stability (Human); assay type: in vitro ADME
Description: (§2) Plasma stability of disclosed compounds was investigated. The following table indicates the percent of compound remaining after 60 minutes.

[5] = Plasma stability (Rat); assay type: in vitro ADME
Description: as §2

[6] = biological target: T1, NMDAR2A expressing HEK cell membranes (Homo sapiens, UniProt Q05586+Q12879); experiment: NMDAR agonist assay, [3H]MK-801 binding, NMDAR2A; assay type: biochemical; settings: for EC50: read-out: NMDAR2A: log EC50 (converted)
T1 construct: expressed in transfected cells; host or cells: HEK cells (membrane extract)
Description: (§3) (nonequilibrium conditions).
(§4) The baseline value was determined from the best fit curve of the DPM values modeled using the GraphPad program and the log(agonist) vs. response(three parameters) algorithm was then subtracted from all points in the dataset.

[7] = biological target: T2, NMDAR2A expressing HEK cell membranes (Homo sapiens, UniProt Q12879); experiment: NMDAR agonist assay, [3H]MK-801 binding, NMDAR2A; assay type: biochemical; settings: 50 μM glutamate
T2 construct: expressed in transfected cells; host or cells: HEK cells (membrane extract)
Description: as §3, §4

[8] = biological target: T3, NMDAR2B expressing HEK cell membranes (Homo sapiens, UniProt Q05586+Q13224); experiment: NMDAR agonist assay, [3H]MK-801 binding, NMDAR2B; assay type: biochemical; settings: for EC50: read-out: NMDAR2B log EC50 (converted)
T3 construct: expressed in transfected cells; host or cells: HEK cells (membrane extract)
Description: as §3, §4

[9] = biological target: T4, NMDAR2B expressing HEK cell membranes (Homo sapiens, UniProt Q13224); experiment: NMDAR agonist assay, [3H]MK-801 binding, NMDAR2B; assay type: biochemical; settings: 50 μM glutamate
T4 construct: expressed in transfected cells; host or cells: HEK cells (membrane extract)
Description: as §3, §4

[10] = biological target: T5, NMDAR2C expressing HEK cell membranes (Homo sapiens, UniProt Q05586+Q14957); experiment: NMDAR agonist assay, [3H]MK-801 binding, NMDAR2C; assay type: biochemical; settings: for EC50: read-out: NMDAR2C: log EC50 (converted)
T5 construct: expressed in transfected cells; host or cells: HEK cells (membrane extract)
Description: as §3, §4

[11] = biological target: T6, NMDAR2D expressing HEK cell membranes (Homo sapiens, UniProt O15399+Q05586); experiment: NMDAR agonist assay, [3H]MK-801 binding, NMDAR2D; assay type: biochemical; settings: for Emax: read-out: NMDAR2D: % maximal [3H]MK-801 binding relative to 1 mM glycine; for EC50: [3H]MK-801 binding, read-out: NMDAR2D: log EC50 (converted)
T6 construct: expressed in transfected cells; host or cells: HEK cells (membrane extract)
Description: as §3, §4

[12] = IV pharmacokinetics; assay type: in vivo; parameters: C0: unit: ng/mL; settings: Sprague Dawley rats, 2 mg/kg, normal saline; for Vd: read-out: Vss
Description: Sprague Dawley rats were dosed intravenously using a normal saline formulation containing 2 mg/kg of the compounds identified in the below table. The table below summarizes the results of the IV pharmacokinetics.

[13] = Oral pharmacokinetics (plasma, brain, CSF); assay type: in vivo; parameters: Cmax: unit: ng/mL; settings: Sprague Dawley rats, per os, 10 mg/kg; for Tmax: normal saline
Description: In another experiment, Sprague Dawley rats were dosed per os using a normal saline formulation containing 10 mg/kg of the compounds identified in the table below. Plasma, brain, and CSF samples were analyzed at various time points over a 24 hour period. The table below summarizes the results of the oral pharmacokinetics.

[14] = 50 μM glutamate, [3H]MK-801 binding
[15] = 50 μM glutamate, relative to 1 mM glycine, read-out: NMDAR2C A: % maximal [3H]MK-801 binding relative to 1 mM glycine
[16] = 50 μM glutamate, relative to 1 mM glycine
[17] = Sprague Dawley, rat, in vivo, iv
[18] = Sprague Dawley, rat, in vivo, iv, read-out: C0
[19] = Sprague Dawley, rat, plasma, po
[20] = Sprague Dawley, rat, plasma, po, read-out: Tmax
[21] = Sprague Dawley, rat, plasma, po, plasma, read-out: Cmax

T4 sequence (Q13224 27-1484, other chains not shown): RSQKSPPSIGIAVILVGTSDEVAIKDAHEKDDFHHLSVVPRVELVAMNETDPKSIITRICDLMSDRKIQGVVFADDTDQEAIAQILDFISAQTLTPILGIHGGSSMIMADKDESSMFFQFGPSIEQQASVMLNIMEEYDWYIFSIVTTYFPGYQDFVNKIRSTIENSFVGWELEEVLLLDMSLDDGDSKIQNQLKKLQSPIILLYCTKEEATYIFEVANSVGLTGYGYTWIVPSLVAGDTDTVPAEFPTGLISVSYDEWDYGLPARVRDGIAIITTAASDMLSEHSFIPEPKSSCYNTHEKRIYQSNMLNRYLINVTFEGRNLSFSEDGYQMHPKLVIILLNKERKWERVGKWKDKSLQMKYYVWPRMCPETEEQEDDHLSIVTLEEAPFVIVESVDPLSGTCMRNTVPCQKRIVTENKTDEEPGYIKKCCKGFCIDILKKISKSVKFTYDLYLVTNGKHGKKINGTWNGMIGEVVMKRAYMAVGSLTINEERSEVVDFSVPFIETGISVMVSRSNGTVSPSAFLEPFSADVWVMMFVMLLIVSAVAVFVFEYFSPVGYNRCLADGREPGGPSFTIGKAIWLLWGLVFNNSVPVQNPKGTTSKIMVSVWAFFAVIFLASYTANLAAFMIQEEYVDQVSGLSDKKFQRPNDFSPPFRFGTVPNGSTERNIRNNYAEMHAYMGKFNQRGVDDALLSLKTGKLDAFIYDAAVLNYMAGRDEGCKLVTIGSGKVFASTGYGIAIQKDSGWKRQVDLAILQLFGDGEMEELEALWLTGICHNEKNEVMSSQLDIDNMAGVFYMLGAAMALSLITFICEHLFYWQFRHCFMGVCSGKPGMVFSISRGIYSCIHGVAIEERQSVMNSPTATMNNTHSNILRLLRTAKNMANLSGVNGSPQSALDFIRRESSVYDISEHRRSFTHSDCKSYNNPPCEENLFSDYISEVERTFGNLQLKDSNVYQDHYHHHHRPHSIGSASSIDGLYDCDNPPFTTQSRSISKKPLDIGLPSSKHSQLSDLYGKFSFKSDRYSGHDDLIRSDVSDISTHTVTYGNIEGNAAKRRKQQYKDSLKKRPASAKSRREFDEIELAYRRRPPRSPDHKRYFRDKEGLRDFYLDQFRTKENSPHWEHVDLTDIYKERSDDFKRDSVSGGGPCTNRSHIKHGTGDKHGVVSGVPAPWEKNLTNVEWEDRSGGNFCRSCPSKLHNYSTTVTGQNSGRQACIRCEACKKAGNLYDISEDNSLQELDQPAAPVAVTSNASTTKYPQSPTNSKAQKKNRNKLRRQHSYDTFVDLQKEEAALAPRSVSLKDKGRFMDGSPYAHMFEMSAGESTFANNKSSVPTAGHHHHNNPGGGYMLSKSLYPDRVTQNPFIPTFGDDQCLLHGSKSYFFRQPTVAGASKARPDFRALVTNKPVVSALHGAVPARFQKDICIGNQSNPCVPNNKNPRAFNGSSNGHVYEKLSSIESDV
T3 sequence (Q13224 27-1484, other chains not shown): as above
T5 sequence (Q14957 20-1233, other chains not shown): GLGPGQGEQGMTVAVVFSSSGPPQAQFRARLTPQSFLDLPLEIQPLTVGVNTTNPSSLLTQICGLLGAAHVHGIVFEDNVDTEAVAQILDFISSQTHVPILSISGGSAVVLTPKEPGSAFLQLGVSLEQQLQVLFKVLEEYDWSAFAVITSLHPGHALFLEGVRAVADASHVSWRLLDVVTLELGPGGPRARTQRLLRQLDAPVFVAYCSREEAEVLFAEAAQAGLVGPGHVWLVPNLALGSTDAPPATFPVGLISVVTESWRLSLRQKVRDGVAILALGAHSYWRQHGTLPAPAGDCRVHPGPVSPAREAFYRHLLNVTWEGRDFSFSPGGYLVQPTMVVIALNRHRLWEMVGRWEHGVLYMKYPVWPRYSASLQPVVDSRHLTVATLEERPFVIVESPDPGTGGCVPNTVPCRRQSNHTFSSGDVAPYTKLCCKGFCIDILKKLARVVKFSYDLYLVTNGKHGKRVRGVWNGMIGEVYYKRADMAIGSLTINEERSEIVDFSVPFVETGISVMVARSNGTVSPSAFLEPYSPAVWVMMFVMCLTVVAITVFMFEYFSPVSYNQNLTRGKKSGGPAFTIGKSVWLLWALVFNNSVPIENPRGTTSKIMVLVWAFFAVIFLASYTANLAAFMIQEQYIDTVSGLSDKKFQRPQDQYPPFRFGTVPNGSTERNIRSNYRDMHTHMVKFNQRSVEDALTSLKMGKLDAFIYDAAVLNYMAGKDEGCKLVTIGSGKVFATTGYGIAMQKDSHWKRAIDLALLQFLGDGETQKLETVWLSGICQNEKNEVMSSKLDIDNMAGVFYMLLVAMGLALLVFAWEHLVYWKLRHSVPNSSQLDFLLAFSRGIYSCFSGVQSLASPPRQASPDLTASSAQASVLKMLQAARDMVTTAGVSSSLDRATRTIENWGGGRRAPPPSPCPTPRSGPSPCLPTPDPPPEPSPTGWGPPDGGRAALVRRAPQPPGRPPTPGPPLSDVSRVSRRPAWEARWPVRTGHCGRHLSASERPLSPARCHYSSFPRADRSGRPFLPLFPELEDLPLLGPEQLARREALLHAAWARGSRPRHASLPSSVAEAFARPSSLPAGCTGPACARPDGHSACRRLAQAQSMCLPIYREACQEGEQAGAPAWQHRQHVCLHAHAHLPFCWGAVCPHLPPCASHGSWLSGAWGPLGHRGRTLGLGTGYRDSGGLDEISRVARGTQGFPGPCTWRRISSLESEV

Structure (SMILES)	Microsomal (Human): percent of compound remaining after 60 minutes [2] [%]	Microsomal (Rat): percent of compound remaining after 60 minutes [3] [%]	Plasma (Human): percent of compound remaining after 60 minutes [4] [%]	Plasma (Rat): percent of compound remaining after 60 minutes [5] [%]	NMDAR2A: % maximal [3H]MK-801 binding relative to 1 mM glycine [7]	NMDAR2B: % maximal [3H]MK-801 binding relative to 1 mM glycine [9]	CSF Cmax [13] [ng/mL]	Brain Cmax [13] [ng/mL]	EC50 [6, 14] [nM]	EC50 [8, 14] [nM]	Emax [10, 15] [%]	AUC(0-t) [12, 17] [ng·h/mL]	clearance [12, 17] [mL/min/kg]	half-life [12, 17] [min]	C0 [12, 18] [ng/mL]	Vd [12, 17] [L/kg]	AUC(0-t) [13, 19] [ng·h/mL]	Tmax [13, 20] [min]	Cmax [13, 21] [ng/mL]	Max Effect (mean number of 50 kHz USVs per 15 seconds) ([1]; dose 0.1 mg/kg)	other results
CN1C2(CCC13CNC3=O)CNC2=O (single isomer, unassigned) [AB-2, 5-methyl-2,5,8-triazadispiro[3.1.36.24]undecane-1,7-dione]	72	78	86	83	− (−=0)	+ (<100%=+)	–	–	–	–	–	–	–	–	–	–	–	–	–	–	Max Effect (mean number of 50 kHz USVs per 15 seconds) ([1]; dose 0.001-1 mg/kg): ** (**: 11-16.9); pEC50 ([6]; NMDAR2A: log EC50, 50 μM glutamate, [3H]MK-801 binding): < 7.00; pEC50 ([8]; NMDAR2B: log EC50, 50 μM glutamate, [3H]MK-801 binding): > 9.00; pEC50 ([10]; NMDAR2C: log EC50, 50 μM glutamate, [3H]MK-801 binding): > 9.00; Emax ([10]; read-out: NMDAR2C: % maximal [3H]MK-801 binding relative to 1 mM glycine): < 100%; Emax [11]: < 100%
CC(C)(C)OC(=O)N1C(C(N)=O)CCC12CN(OCc1ccccc1)C2=O (single isomer, unassigned) [BH, tert-butyl 2-(benzyloxy)-6-carbamoyl-1-oxo-2,5-diazaspiro[3.4]octane-5-carboxylate]	100	100	90	95	− (−=0)	+ (<100%=+)	36.66	0	> 100	< 1	> 100	656	50.5	20.4	2390	0.82	614	15	859	** (**: 11-16.9)	EC50 [10, 14]: < 1 nM; bioavailability [13, 19]: 18%
CC(C)C(=O)N1C(C(=O)N[C@H](C(N)=O)[C@@H](C)O)CCC12CNC2=O (single isomer, unassigned) [AS]	84	100	100	100	+ (<100%=+)	+ (<100%=+)	0	0	< 1	< 1	–	2800	11.8	190	2230	0.61	367	49.8	75.4	** (**: 11-16.9)	bioavailability [13, 19]: 3%
CC(C)(C)OC(=O)N1CC2(CN(OCc3ccccc3)C2=O)CC12CN(OCc1ccccc1)C2=O (single isomer, unassigned) [AW, tert-butyl 2,8-bis(benzyloxy)-1,7-dioxo-2,8,10-triazadispiro[3.1.36.24]undecane-10-carboxylate]	2	0	90	0	+ (<100%=+)	++ (>100%=++)	–	–	< 1	–	< 100	–	–	–	–	–	–	–	–	** (**: 11-16.9)	EC50 [10, 14]: < 1 nM; EC50 ([11]; 50 μM glutamate): < 1 nM; Emax [11, 16]: < 100%

Continued, in another order:

Microsomal (Human): percent of compound remaining after 60 minutes [2] [%]	Microsomal (Rat): percent of compound remaining after 60 minutes [3] [%]	Plasma (Human): percent of compound remaining after 60 minutes [4] [%]	Plasma (Rat): percent of compound remaining after 60 minutes [5] [%]	NMDAR2A: % maximal [3H]MK-801 binding relative to 1 mM glycine [7]	NMDAR2B: % maximal [3H]MK-801 binding relative to 1 mM glycine [9]	CSF Cmax [13] [ng/mL]	Brain Cmax [13] [ng/mL]	EC50 [6, 14] [nM]	EC50 [8, 14] [nM]	Emax [10, 15] [%]	AUC(0-t) [12, 17] [ng·h/mL]	clearance [12, 17] [mL/min/kg]	half-life [12, 17] [min]	C0 [12, 18] [ng/mL]	Vd [12, 17] [L/kg]	AUC(0-t) [13, 19] [ng·h/mL]	Tmax [13, 20] [min]	Cmax [13, 21] [ng/mL]	Structure (SMILES)	Max Effect (mean number of 50 kHz USVs per 15 seconds) ([1]; dose 0.1 mg/kg)	other results
100	100	100	95	+ (<100%=+)	+ (<100%=+)	0	0	–	–	–	–	–	–	–	–	–	–	–	C[C@@H](O)[C@H](NC(=O)C1CCC2(CNC2=O)N1)C(N)=O (single isomer, unassigned) [AQ-2]	–	Max Effect (mean number of 50 kHz USVs per 15 seconds) ([1]; dose 0.1 mg/kg, 0.1 mg/kg): * (*: 6-10.9); EC50 ([7]; [3H]MK-801 binding, read-out: NMDAR2A: log EC50 (converted)): < 1 nM; EC50 ([9]; [3H]MK-801 binding, read-out: NMDAR2B log EC50 (converted)): < 1 nM; AUClast [12]: 2601.7 ng·h/mL; C0 [12]: 5143.2 ng/mL; Cl [12]: 12.82 mL/min/kg; T1/2 [12]: 35.4 min; Vss [12]: 0.36 L/kg; % F [13]: 5%; AUClast [13]: 599.6 ng·h/mL; Tmax [13]: 64.8 min; Cmax ([13]; plasma): 144.2 ng/mL
100	84	100	100	–	–	0	0	< 1	< 1	< 100	3330	9.84	21.6	6820	0.28	350	49.8	133	C[C@@H](O)[C@H](NC(=O)C1CCC2(CNC2=O)N1)C(N)=O (single isomer, unassigned) [AQ-1]	–	Max Effect (mean number of 50 kHz USVs per 15 seconds) ([1]; dose 0.1 mg/kg, 0.1 mg/kg): ** (**: 11-16.9); Emax ([6]; 50 μM glutamate, relative to 1 mM glycine, read-out: NMDAR2A: % maximal [3H]MK-801 binding relative to 1 mM glycine): < 100%; Emax ([8]; 50 μM glutamate, relative to 1 mM glycine, read-out: NMDAR2B: % maximal [3H]MK-801 binding relative to 1 mM glycine): < 100%; EC50 ([11]; 50 μM glutamate): < 1 nM; Emax [11, 16]: < 100%; % F [13]: 2%
